According to PMC11063903, “Engineering a human P2X2 receptor with altered ligand selectivity in yeast” (The Journal of Biological Chemistry, 2024):
Where a chain is given by its changes, count along the chain named. pEC50: −log10 of the molar value.

Key:
P2X2 F301W = molecular target: T1, P2X2 F301W (Homo sapiens, UniProt Q9UBL9, F301W); assay: Fast GCaMP-mScarletI assay in yeast, P2X2 F301W; assay type: cell-based; details: for Bottom, best fit value / Hillslope, best fit value / Top, best fit value: four-parameter logistic fit of ΔF/ΔT; for Bottom, best fit value / Hillslope, best fit value / Top, best fit value / pEC50: n = 3; for pEC50: four-parameter logistic fit, unit inferred, unit M, read-out: EC50, best fit value
T1 construct: expressed in transfected cells; host or cells: S. cerevisiae BY4741 background
T1 sequence (Q9UBL9 1-471 F301W): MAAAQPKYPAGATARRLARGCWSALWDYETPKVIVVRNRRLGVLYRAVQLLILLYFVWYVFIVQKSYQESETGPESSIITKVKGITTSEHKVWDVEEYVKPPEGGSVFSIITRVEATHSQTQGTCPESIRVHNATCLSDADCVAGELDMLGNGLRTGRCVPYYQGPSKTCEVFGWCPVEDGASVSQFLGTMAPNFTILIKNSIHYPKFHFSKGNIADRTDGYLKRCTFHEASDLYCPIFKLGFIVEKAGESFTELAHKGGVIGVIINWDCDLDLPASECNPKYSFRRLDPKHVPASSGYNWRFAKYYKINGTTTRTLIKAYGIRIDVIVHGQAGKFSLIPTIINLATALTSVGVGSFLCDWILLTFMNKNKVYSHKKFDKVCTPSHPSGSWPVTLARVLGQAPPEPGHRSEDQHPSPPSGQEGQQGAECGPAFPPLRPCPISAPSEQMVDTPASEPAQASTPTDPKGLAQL
Procedure: (§1) Figure 4 Unnatural-ligand gating in LBD libraries.A, WT P2X2 was tested with 1 mM ATP, 500 μM AMP-PNP, and compared to ATP with the broken receptor (K81C K83C) control with 1 mM ATP in the fast GCaMP-mScarletI assay (n = 3). […] B, heat map summarizing AMP-PNP signaling (ΔF/ΔT, fast GCaMP-mScarletI assay) in the site-saturation libraries (n = 2–3). All values are normalized to WT P2X2 with saturating amounts of AMP-PNP (500 μM) and therefore represent low signal (ΔF/ΔT) compared to the ATP ligand. C, F301W, F303Y, and A304W were combinatorially combined and tested against the WT, K81C K83C broken P2X2, and the single mutant clones with both ATP (1 mM, black) and AMP-PNP (500 μM, pink). […] Values here represent signal onset and are not normalized to a positive control (n = 2–5). D–K, dose response of each P2X variant with both ATP (black) and AMP-PNP (pink) in the fast GCaMP-mScarletI assay (n = 3). Statistics were performed via one-way ANOVA with Dunnett’s multiple comparisons with to the “broken” K81C K83C negative control. ∗ represents a p value ≤0.05, ∗∗ is p ≤ 0.01, and ∗∗∗ is p ≤ 0.001.
Given that the yeast-based screen seemed to recapitulate important structural and functional features of human ion channel function, we hypothesized that it might be possible to engineer new P2X2 functionalities in yeast, including new ligand specificity. […] We screened our 133-member library in the presence of 500 μM AMP-PNP (Fig. S7). While the AMP-PNP signal was uniformly low, three substitutions (F301W, F303Y, and A304W) increased signaling 2.5 to 2.8 times relative to the negative control receptor (Figs. 4B, and S7, D, F, and G). To gain a more complete view of the properties of these mutants, dose–response curves were generated with ATP and AMP-PNP (Fig. 4, D–G, and Table S2).
(§2) GCaMP assays were performed as follows. P2X2 GCaMP strains were designed with a bi-cistronic reporter, in which the GCaMP protein was followed by a 2A peptide and a mScarletI reporter ([53]). The co-translated mScarletI was designed to act as a control for plasmid loss, GCaMP breakage via nonsense mutation, and contamination. […] P2X2-GCaMP strains were cultured and induced as previously described. Samples were induced for 24 h to allow for the accumulation of the mature GCaMP protein. Cells were washed three times in 0.1 M MES/Tris buffer and resuspended with MES/Tris with supplemental calcium. Cells were loaded onto a black, clear bottom microplate and imaged on a FlexStation3 plate reader. Samples were imaged in “flex” mode. Samples were imaged for 48 s at an interval of 1.6 s. Fluorescence was measured with an excitation at 485 nm, and emission 525 nm. At the 21 s mark, 100 μl ligand solution was transferred to the cells. For strains with mScarlet, fluorescence was read with excitation 570 nm/emission 610 nm. Slopes were calculated from the last 6 points of measurement and were normalized to the positive control samples. Any replicate in which the mScarlet value was measured to be over 2 standard deviations less than the mean for that set was discarded from further analysis.
(§3) For multiple comparisons in the site-saturation screening data, One-way ANOVA with Dunnett’s multiple comparisons test was performed where every sample was compared to the “broken” negative control. Significance was plotted where ∗ represents a p value ≤0.05, ∗∗ is p ≤0.01, and ∗∗∗ is p ≤0.001. Dose–response curves were fit with nonlinear regression software using a four-parameter logistic curve. All statistics were calculated and plotted in Graphpad Prism software.

P2X2 F301W+A304W = molecular target: T2, P2X2 F301W+A304W (Homo sapiens, UniProt Q9UBL9, A304W/F301W); assay: Fast GCaMP-mScarletI assay in yeast, P2X2 F301W+A304W; assay type: cell-based; details: for Bottom, best fit value / Hillslope, best fit value / Top, best fit value: four-parameter logistic fit of ΔF/ΔT
T2 construct: expressed in transfected cells; host or cells: S. cerevisiae BY4741 background
T2 sequence (Q9UBL9 1-471 F301W/A304W): T1 sequence (Q9UBL9 1-471 F301W) with A304W
Procedure: as §1
The combined mutations were synergistic, with F303Y + A304W having a predicted additive effect of ca. Ten-fold, relative to the 73-fold seen.
as §2, §3

activity compared to the wild-type (P2X2 F301W; AMP-PNP dose-response, Fig. 4D-G, Table S2) | improvement compared to the WT channel (rate of signal onset ΔF/ΔT) (P2X2 F301W+A304W; at 500 μM AMP-PNP) | SMILES | Bottom, best fit value (P2X2 F301W) | Hillslope, best fit value (P2X2 F301W) | Top, best fit value (P2X2 F301W) | pEC50 (P2X2 F301W) | Bottom, best fit value (P2X2 F301W+A304W; n = 3) | Hillslope, best fit value (P2X2 F301W+A304W; n = 3) | Top, best fit value (P2X2 F301W+A304W; n = 3) | pEC50 (P2X2 F301W+A304W; four-parameter logistic fit, n = 3, unit inferred, unit M, read-out: EC50, best fit value)
5.28 fold | 24 fold | Nc1ncnc2c1ncn2[C@@H]1O[C@H](COP(=O)(O)OP(=O)(O)NP(=O)(O)O)[C@@H](O)[C@H]1O [AMP-PNP] | 0.4523 | 2.135 | 5.973 | 3.67 | -0.492 | 1.649 | 81.84 | 
 |  | Nc1ncnc2c1ncn2[C@@H]1O[C@H](COP(=O)(O)OP(=O)(O)OP(=O)(O)O)[C@@H](O)[C@H]1O [ATP] | -0.0044 | 0.94 | 37.70 | 5.30 | -5.28 | 1.07 | 207.50 | 4.68
